Laboratory results as given in patent US5994629A, “Positive selection” (priority 1991, dated 1999).
≈ marks a conversion by molar mass, not a printed value. Structures can show the parent of a compound that is named as a salt. Where two headings read alike, the source gives them in different places.

Assays:
Solubility = format: physicochemical; conditions: for solubility: organic solvent or mixture
[1] = target: β-glucuronidase from E. coli (Escherichia coli, UniProt P05804); assay: Hydrolysis by β-glucuronidase (GUS), HPLC/TLC; format: biochemical; conditions: 37° C.
β-glucuronidase from E. coli, sequence (P05804 whole entry, looked up): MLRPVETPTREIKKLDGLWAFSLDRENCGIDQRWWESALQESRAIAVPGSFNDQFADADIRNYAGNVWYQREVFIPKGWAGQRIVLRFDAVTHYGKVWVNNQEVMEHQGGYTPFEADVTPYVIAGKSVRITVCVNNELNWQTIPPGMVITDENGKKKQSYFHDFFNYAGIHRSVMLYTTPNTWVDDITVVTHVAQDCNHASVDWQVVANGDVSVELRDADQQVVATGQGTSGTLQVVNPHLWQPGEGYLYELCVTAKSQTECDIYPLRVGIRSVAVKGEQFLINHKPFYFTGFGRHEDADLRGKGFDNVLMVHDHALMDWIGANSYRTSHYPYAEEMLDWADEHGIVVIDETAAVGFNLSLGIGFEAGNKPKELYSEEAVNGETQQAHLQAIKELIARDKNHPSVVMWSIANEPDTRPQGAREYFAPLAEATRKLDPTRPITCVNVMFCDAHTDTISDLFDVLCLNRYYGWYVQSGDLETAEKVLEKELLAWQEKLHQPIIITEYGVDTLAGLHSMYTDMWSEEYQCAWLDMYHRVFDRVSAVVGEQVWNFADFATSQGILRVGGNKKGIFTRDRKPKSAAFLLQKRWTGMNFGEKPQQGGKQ
Method: […] […] This confirms the identity of the product as a conjugate of BA and β-D-glucuronic acid.
[…] The presence of hydrolysis products is then determined using HPLC and TLC.

potato stem segments [2] = assay: D-xylose as carbohydrate source during shoot regeneration; format: cell-based
Method: Explants are produced and treated as described above under "selection of transformed tissue", except that the selection/regeneration substrate was not supplemented with kanamycin or cabenicillin, and that plant tissue is not transformed. Thus the only subcultivation step is when the explants are transferred from the co-cultivation substrate to the selection/regeneration substrate which is supplemented with xylose at the concentrations indicated below. The number of regenerated shoots is recorded after 12 weeks.

explants = assay: Inhibition of the toxicity of mannose by methyl-3-O-glucose; format: cell-based; conditions: MOG 0 g/l; mannose 0 g/l; sucrose 10 g/l
Source text: Example 25 is repeated except that the selection/regeneration substrate is supplemented with methyl 3-0-glucose (MOG) at the concentrations indicated in Table 25. The percentage of live explants is registered after 8 weeks.

Wild type explants = assay: Shoot regeneration on mannose, sucrose and methyl-3-O-glucose, wild type; format: cell-based; conditions: sucrose 10 g/l, no mannose, no methyl 3O-glucose; Wild type tissue
[3] = tested on: sugarbeet cotyledon explants; assay: Effect of D-xylose in sugarbeets with and without light; format: cell-based
Method: Sugarbeet is transformed by the so-called cot-pet method as described in PCT Patent Application No. PCT DK92/00108 wherein cotyledons including the petiole are used as explants. Seedlings are derived from seeds germinated and grown for 4-7 weeks at 12° C. in a 16 h day/8 h night regime. Cotyledons are excised 2-3 mm below the node, tawn apart and cultured either in the dark or in light and in the presence or absence of xylose.

[4] = tested on: non-transformed potato stem segments; assay: Inhibition by mannose of regeneration of shoots; format: cell-based, Solanum tuberosum; conditions: mannose 0 g/l
Method: This substrate is referred to hereafter as "selection/regeneration substrate". Regenerated plants are produced as described above, except that the shoot segments are not co-cultured with bacteria and the washing procedure consequential thereon is omitted. […] In general, mannose cannot be used as a carbohydrate source in most plant species. When mannose is added to plants it is metabolized and mannose 6-phosphate accumulates. Mannose 6-phosphate can be converted to fructose 6-phosphate by mannose 6-phosphate isomerase, the amount converted being dependent upon the activity of the isomerase. Such fructose 6-phosphate may be utilized by plants, but in principal high levels of mannose (whether or not an alternative carbohydrate source is available) are toxic to plants.

[5] = tested on: explants transgenic for the mannose 6-phosphate isomerase gene; assay: Shoot regeneration on mannose, sucrose and methyl-3-O-glucose, Man-6-P-isomerase; format: cell-based; conditions: sucrose 10 g/l, no mannose, no methyl 3O-glucose; Transgenic tissue
potato stem segments [6] = assay: Carbohydrate sources, potato stem segments, 9 weeks; format: cell-based; conditions: for # of Shoots per explant / activity at 10000 µg/mL / activity at 5000 µg/mL: 9 weeks; for activity at 10000 µg/mL / activity at 5000 µg/mL: Solanum tuberosum
Source text: Similar results are observed with potato stem segments after 9 weeks of culturing.

[7] = tested on: leaf discs of tobacco without (GUS-) introduced β-glucuronidase genes; format: cell-based, Nicotiana tabacum 'Wisconsin 38'; conditions: test compounds at several concentrations up to 250 μM in MSO
[8] = tested on: leaf discs of tobacco with (GUS+) introduced β-glucuronidase genes; format: cell-based, Nicotiana tabacum 'Wisconsin 38'; conditions: test compounds at several concentrations up to 250 μM in MSO
[9] = tested on: potato stem segments with pAH-Xyl; assay: Selection on D-xylose, potato transformed with pAH-Xyl; format: cell-based
Method: (§1) Shoots are regenerated from potato stem segments treated with various concentrations of sucrose and D-xylose. The number of shoots are counted after 11 weeks of selection. 105 explants are tested per treatment.

[10] = tested on: potato stem segments with control (Kanamycin resistant gene); assay: Selection on D-xylose, potato transformed with control (kanamycin resistant gene); format: cell-based
Method: as §1

[11] = D-xylose 0 g/l, sucrose 10 g/l, 2 weeks in dark and 1 week in light
[12] = D-xylose 0 g/l, sucrose 10 g/l, 3 weeks light
[13] = 10 g/l, read-out: Size % of control
[14] = 10 g/l, read-out: explants alive % of control
[15] = D-xylose 10 g/l, sucrose 0 g/l, 2 weeks in dark and 1 week in light
[16] = D-xylose 10 g/l, sucrose 0 g/l, 3 weeks light
[17] = D-xylose 10 g/l, sucrose 10 g/l, 2 weeks in dark and 1 week in light
[18] = D-xylose 10 g/l, sucrose 10 g/l, 3 weeks light
[19] = sucrose 2.5 g/l, D-xylose 2.5 g/l
[20] = sucrose 2.5 g/l, D-xylose 2.5 g/l, 11 weeks, 105 explants
[21] = sucrose 2.5 g/l, D-xylose 5.0 g/l
[22] = sucrose 2.5 g/l, D-xylose 7.5 g/l
[23] = sucrose 5.0 g/l, D-xylose 2.5 g/l
[24] = sucrose 5.0 g/l, D-xylose 5.0 g/l
[25] = sucrose 5.0 g/l, D-xylose 7.5 g/l
[26] = sucrose 10.0 g/l, D-xylose 2.5 g/l
[27] = sucrose 10.0 g/l, D-xylose 5.0 g/l
[28] = sucrose 10.0 g/l, D-xylose 7.5 g/l

## O=C(O)C=Cc1ccccc1O[C@@H]1O[C@H](C(=O)O)[C@@H](O)[C@H](O)[C@H]1O [CouGN, 2-hydroxycinnamyl-β-D-glucopyranuronic acid]
Solubility; aqueous buffer and 50% alcohol, aqueous buffer, pH 7, and 50% aqueous alcohol
  solubility: 5000 µg/mL (≈ 14.7 mM)
[1]; 5 mg in 1 ml, 1000 units Sigma Type G5897, 12 hours, TLC
  conversion to o-coumaric acid by GUS: 93.4%

## OC[C@H]1O[C@@](CO)(O[C@H]2O[C@H](CO)[C@@H](O)[C@H](O)[C@H]2O)[C@@H](O)[C@@H]1O [sucrose]
Potato stem segments [2]; xylose 0 g/l, sucrose 10 g/l
  Number of regenerated shoots each stem segment: 6
explants
  percentage of live explants: 100
Wild type explants
  Regeneration of shoots: 1.7 shoots/explant
[3]; [11]
  % expl. with shoots: 50%
  Green (%): 97%
  weight (wet): 1.38 g
[3]; [12]
  % expl. with shoots: 98%
  Green (%): 100%
  weight (wet): 7.41 g
[4]; sucrose 10 g/l
  Regenerated shoots/explant (%): 50%
[4]; sucrose 20 g/l
  Regenerated shoots/explant (%): 53%
[5]
  Regeneration of shoots: 1.4 shoots/explant
Potato stem segments [6]; 10 g/l
  # of Shoots per explant: 2.8
Potato stem segments [6]; [13]
  activity at 10000 µg/mL: 100%
Potato stem segments [6]; [14]
  activity at 10000 µg/mL: 100%

## CC(C)=CCNc1nc(S[C@@H]2O[C@H](C(=O)O)[C@@H](O)[C@H](O)[C@H]2O)nc2[nH]cnc12 [IP2SGN sodium salt, 6-(3-methyl-but-2-enylamino)purine-2-yl-1-thio-β-D-glucopyranuronic acid, sodium salt]
Solubility; 50% aqueous alcohol
  solubility in words: sparingly soluble
[1]; 2500 Fishman units, 48 hours, HPLC
  partial removal of the glucuronide by GUS: 65%
[7]
  Shoot formation, GUS-: + ("+" means shoot formation at concentrations below 250 μM)
[8]
  Shoot formation, GUS+: + ("+" means shoot formation at concentrations below 250 μM)

## NC(=O)[C@H]1O[C@@H](n2cnc(NCc3ccccc3)c3ncnc2-3)[C@H](O)[C@@H](O)[C@@H]1O [BA3GNamide, 3-β-D-glucupyranuronamido-6-benzylaminopurine]
Solubility; 50% aqueous methanol containing 25% acetic acid
  solubility: 2400 µg/mL (≈ 5.99 mM)
Solubility; water or alcohol
  solubility in words: only sparingly soluble
[7]
  Shoot formation, GUS-: + ("+" means shoot formation at concentrations below 250 μM)
[8]
  Shoot formation, GUS+: + ("+" means shoot formation at concentrations below 250 μM)

## O=C[C@H](O)[C@@H](O)[C@H](O)CO [D-xylose]
Potato stem segments [2]; when sucrose is present, compared to D-mannose
  inhibition of shoot regeneration, in words: weak inhibitor of shoot regeneration
Potato stem segments [2]; xylose 5 g/l, sucrose 0 g/l, 12 weeks
  Number of regenerated shoots each stem segment: 0
Potato stem segments [2]; xylose 5 g/l, sucrose 10 g/l
  Number of regenerated shoots each stem segment: 3
Potato stem segments [2]; xylose 10 g/l, sucrose 0 g/l
  Number of regenerated shoots each stem segment: 0
Potato stem segments [2]; xylose 10 g/l, sucrose 10 g/l
  Number of regenerated shoots each stem segment: 0
Potato stem segments [2]; xylose 20 g/l, sucrose 0 g/l
  Number of regenerated shoots each stem segment: 0
Potato stem segments [2]; xylose 20 g/l, sucrose 10 g/l
  Number of regenerated shoots each stem segment: 0
[3]; [15]
  % expl. with shoots: 13%
  Green (%): 77%
  weight (wet): 0.37 g
[3]; [16]
  % expl. with shoots: 90%
  Green (%): 90%
  weight (wet): 1.53 g
[3]; [17]
  % expl. with shoots: 80%
  Green (%): 97%
  weight (wet): 0.89 g
[3]; [18]
  % expl. with shoots: 97%
  Green (%): 100%
  weight (wet): 5.47 g
[9]; [19]
  GUS+ Shoots: 0
  GUS+ Shoots/explants: 0
[9]; [20]
  No. Shoots: 0
[9]; [21]
  GUS+ Shoots: 0
  GUS+ Shoots/explants: 0
  No. Shoots: 0
[9]; [22]
  GUS+ Shoots: 0
  GUS+ Shoots/explants: 0
  No. Shoots: 0
[9]; [23]
  GUS+ Shoots: 0
  GUS+ Shoots/explants: 0
  No. Shoots: 0
[9]; [24]
  GUS+ Shoots: 0
  GUS+ Shoots/explants: 0
  No. Shoots: 0
[9]; [25]
  GUS+ Shoots: 0
  GUS+ Shoots/explants: 0
  No. Shoots: 0
[9]; [26]
  GUS+ Shoots: 5
  GUS+ Shoots/explants: 0.05
  GUS+ shoots/no. Shoots (%): 6%
  No. Shoots: 84
[9]; [27]
  GUS+ Shoots: 0
  GUS+ Shoots/explants: 0
  GUS+ shoots/no. Shoots (%): 0%
  No. Shoots: 20
[9]; [28]
  GUS+ Shoots: 4
  GUS+ Shoots/explants: 0.04
  GUS+ shoots/no. Shoots (%): 57.1%
  No. Shoots: 7
[10]; [19]
  GUS+ Shoots: 0
  GUS+ Shoots/explants: 0
[10]; [20]
  No. Shoots: 0
[10]; [21]
  GUS+ Shoots: 0
  GUS+ Shoots/explants: 0
  No. Shoots: 0
[10]; [22]
  GUS+ Shoots: 0
  GUS+ Shoots/explants: 0
  No. Shoots: 0
[10]; [23]
  GUS+ Shoots: 0
  GUS+ Shoots/explants: 0
  No. Shoots: 0
[10]; [24]
  GUS+ Shoots: 0
  GUS+ Shoots/explants: 0
  No. Shoots: 0
[10]; [25]
  GUS+ Shoots: 0
  GUS+ Shoots/explants: 0
  No. Shoots: 0
[10]; [26]
  GUS+ Shoots: 0
  GUS+ Shoots/explants: 0
  GUS+ shoots/no. Shoots (%): 0%
  No. Shoots: 32
[10]; [27]
  GUS+ Shoots: 0
  GUS+ shoots/no. Shoots (%): 0%
  No. Shoots: 5
[10]; [28]
  GUS+ Shoots: 0
  GUS+ Shoots/explants: 0
  GUS+ shoots/no. Shoots (%): 0%
  No. Shoots: 2
Potato stem segments [6]; 5 g/l
  # of Shoots per explant: 0
Potato stem segments [6]; 10 g/l
  # of Shoots per explant: 0
Potato stem segments [6]; 5 g/l, read-out: Size % of control
  activity at 5000 µg/mL: 17%
Potato stem segments [6]; 5 g/l, read-out: explants alive % of control
  activity at 5000 µg/mL: 0%
Potato stem segments [6]; [13]
  activity at 10000 µg/mL: 13%
Potato stem segments [6]; [14]
  activity at 10000 µg/mL: 0%
Potato stem segments [6]; potato stem segments when sucrose is present
  effect on shoot regeneration, in words: inhibitor of shoot regeneration
